According to US7384657B2, “Composition of natural herb extract for treating cardiovascular disease and its method of preparation thereof” (priority 2004, dated 2008):
“Also recorded” adds a separate entry of the source. Where two headings read alike, the source gives them in different places.

What was measured:
[1] = pharmacokinetics of Danshensu after auricular vein injection; format: in vivo, rabbits; details: 30 mg/kg i.v.
Protocol: Pharmacokinetics of Danshenu in the biological body is studied. After the selected 5 rabbits' auricular veins are injected with Danshensu (injection of 30 mg/kg), blood is drawn regularly every 15, 30, 60, 90, 120 and 150 minutes. Obtain blood plasma and manipulate like before. Determine concentration of the blood medication. Use blank plasma for controlling. According to the mean from the experimental data, with the use of the logarithm and time of Danshensu concentration, create chart which is a straight line.

[2] = dog model having myocardial infarction; format: in vivo
Excerpt: (§1) The properties of Danshensu are studied.

[3] = internal distribution of Danshensu by HPLC after intravenous Danshen preparation; format: in vivo, domestic rabbit; details: after i.v. Danshen preparation
Protocol: HPLC is used to study the domestic rabbit's internal distribution and content of the Chinese Danshen preparation's Danshensu. […] Adrenal tissue's average is 14.15 μg/g (+0.33), liver's tissue average 17.69 μg/g (+4.44), lung's tissue average 19.73 μg/g (+4.00), heart's tissue average 12.30 μg/g (+2.18), brain's tissue average 5.45 μg/g (+0.60) and spleen's tissue average 4.66 μg/g (+0.68).

[4] = system: isolated pig's coronary artery; test: isolated pig's coronary artery perfusion (modified Oglatree preparation)
Excerpt: as §1
Effect of Danshensu [β-(3,4)-dihydroxyphenyl lactic acid] upon the isolated pig's coronary artery is studied. […] The method, which is different from the method of Oglatree isolated coronary artery preparation, is to have both ends of the isolated pig's coronary artery segment ligated to the perfusion cannula.
Test the same specimen by successively giving it 3 crescendo doses of morphine hydrochloride. Record the largest titer of P after each administration. Using Krbs-Henselait liquid to douche the perfusion system 3 times. When the basic line returns to normal, the effect is very obvious after the application of Danshensu (causing the medical concentration in the perfusion system turning into […]). Repeatedly administrate the same 3 crescendo doses of morphine hydrochloride successively like above. Observe the effect of Danshensu on the systole of coronary artery caused by morphine. Again, after the above-mentioned doses of Danshensu are applied, administrate repeatedly 4 crescendo doses of hydrochloric propanol. Observe the effect of Danshensu on the coronary artery systole caused by propanol. The sequence of administration resembles the above. In addition, after the application of Danshensu, repeat the administration by giving 3 crescendo doses of KCI and 3 crescendo doses of reserpine. […]

isolated heart = test: isolated heart: coronary blood flow, fibrinolysis
Excerpt: as §1

[5] = toleration time in anoxic state in mice; format: in vivo
Excerpt: as §1

[6] = pituitary myocardial ischemia in rats, electrocardiac abnormality; format: in vivo
Excerpt: as §1

[7] = 100 mg/kg i.v.
Protocol: Study of pharmacokinetics of Matrine is carried out. […] Rats are given intravenous injection of oxymatrine 100 mg/kg.

[8] = pharmacokinetics of oxymatrine and matrine in mice
[9] = cited from earlier work
solubility = test: solubility
Protocol: Matrine is also called matricaria. Its molecular formula is C15H24N2O and its molecular weight is 248.36. It has four isomers: α, β, γ, and δ isomers. α-matrine is the one commonly seen. It is a needle or rhombohedral crystal, having a melting point 76° C. and [α]D+39.1° (H2O).
Oxymatrine has a molecular formula C15H24N2O2 and a molecular weight 264.36. It is a colorless columnar crystal (Me2CO), melting point 162° C. (hydrate), 207° C. (anhydrate), [α]D+47.7° (C2H5OH). […] It can change to matrine through reaction with SO2.

[10] = mice and dog; cited from earlier work
[11] = single intravenous injection 5 mg/kg; cited from earlier work
[12] = system: polychromatic erythrocytes; test: polychromatic erythrocytes micronucleus; format: in vivo; details: every dosage group
[13] = teratogenicity and mutagenicity in pregnant animals and male germ cells; format: in vivo, rats; details: 50 and 150 mg/kg
Protocol: Select 50 pregnant rats. Observe and analyze 450 pregnant mice. Choose 50 and 150 mg/kg as puerarin dosage. […] The deformation of appearance, organ or bone is not found in all the examined fetal mice. It proves neither the puerarin nor the solvent has mutagenic activity on the pregnant mice.

adenylate cyclase = test: activation of dissolved adenylate cyclase; format: biochemical
Excerpt: (§2) The effecter of β-receptor is the adenylate cyclase (AC). Excitant of the β-receptor can enable the AC to activate and the antagonist can cause it to inhibit. […] It points out puerarin is an antagonist of one type of β-receptors. It has the selective action on the heart's β-receptor. It can achieve various curative effects on the arrhythmia.

β-receptor = test: radioactive ligand analysis on myocardial membrane; format: binding, rats
Excerpt: as §2

[14] = puerarin: patient's blood 6-K-PGF1a, HDL, TXB2; format: in vivo, human; details: patients
Excerpt: Puerarin can even heighten the patient's blood 6-K-PGF1a [6-acetone-PGF1a (prostaglandin-stable metabolism product)] and High Density Lipid (HDL) level. […] As a result, it enables the coronary artery and the peripheral blood vessel to expand, and therefore, it resists angina pectoris, reduces blood pressure, lowers myocardial oxygen consumption and improves the Ischemic ECG and etc.

[15] = absorption, distribution and excretion of puerarin in rats; format: in vivo
Excerpt: The pharmacokinetics of puerarin is also studied. Absorption and distribution of medication of Puerarin are studied. […] External experiment proves puerarin's destruction in the enterogastric tract is very minor, but can be metabolized by the tissue of blood, liver, kidney and etc. It is also able to integrate with the liver, kidney, lung and plasma protein. Pharmacokinetics parameter of the rats's intravenous injection indicates puerarin's distribution in the body is vast and clears up fast. It is not easy to store.
(§3) Metabolism of medication of Puerarin is studied. 24 hours after the rats taken puerarin orally, 1.85% and 35.7% excreted as urine and stool. After the intravenous injection, 37.62%, 7.39% and 3.65% are secreted from the urine, stool and bile respectively. Absorption, by orally taking, is very little. 36 hours after puerarin is orally taken by normal person, only 0.78% […] secrete from the urine; 72 hours after the oral taking, 73.3% secrete from the stool.

[16] = puerarin in dog with acute myocardial ischemia / coronary blockage; format: in vivo
Protocol: Effect of Puerarin upon the heart is studied. The main effect of Puerarin Pur is to change the myocardial ischemia. Apply intervenous injection of puerarin to the dog which contracts the acute myocardial ischemia. […] After the aortic pressure is adjusted to the level of pre-administration, tension-time index and the rising speed of left ventricular pressure also return to the level of pre-administration.
5 minutes after the midpoint of the anterior branch of the dog's coronary artery encountering acute blockage, intravenous injection of puerarin 20 mg/kg is administrated. […] The function lasts 3˜4 hours. It has no effect on LVSD. 15 minutes after the administration, the ST drops obviously. […] Electrocardiographic index reduces clearly and the pulmonary incarceration has not risen.

[17] = puerarin drops in patients of acute myocardial infarction; format: in vivo, human
[18] = arrhythmia caused by chloroform and the adrenal gland; format: in vivo, domestic rabbit
Excerpt: The effect of puerarin on the rhythm of heart is examined. […] Obviously, it also […] the mean of ventricular premature heartbeat and ventricular tachycardia caused by ouabin.

[19] = system: TA97, TA98, TA100 and TA102; test: Ames test; format: cell-based, typhoid Salmonella bacillus; details: 1, 5, 50, 500, 5000 μg per dish, S9 and non-S9
Protocol: Use TA97, TA98, TA100 and TA102 as testing strain; puerarin 1, 5, 50, 500, and 5000 μg as dish. In the experiment of S9 and non-S9, its reverse colonial mutation setting figure is basically the same, that is, mutation rate (MR)<2. It has no dosage-response relation. […] Use human microblood nutrient for culturing. Add human blood to the puerarin injection. Under the condition of isolated body, add S9 activation system, then, culture for 53 hours. […] Therefore, hereditary toxicity has not been indicated.

[20] = excretion of oral puerarin in normal person; format: in vivo, human
Protocol: as §3

[21] = system: artery's endothelial cell; test: arterial endothelial cell culture; format: cell-based; details: puerarin 250 μg/ml, 6 hours, 36° C.
Protocol: The effect of puerarin on the arterial endothelial cell is also examined. Puerarin has very outstanding effect on the artery's endothelial cell. Add puerarin (250 μg/ml) to the cellular fluid, but no addition of puerarin in the control group. After 6 hours of culture at 36° C., determine the content of carboxylic proline in both the internal and the external fluid of the endothelial cells respectively. […] The content of carboxylic proline, in the […], drops to Experiment Group's 2.70±0.06 μg/ml and 2.43±0.21 μg/ml from 3.35±0.05 μg/ml and 2.68±0.15 μg/ml in the Control group's internal and external endothelial cells. With regards to osamine polysaccharide, it drops to Experiment Group's 0.95±0.12 μg/ml and 0.68±0.15 μg/ml from 1.77±0.12 μg/m and 1.57±0.08 μg/ml in the internal fluid of Control group. […] It regulates the permeability of the water solubility and the substance of plasma molecule. Besides having an effect on the selective barrier action, its complex enzyme system can synthesize and secrete many active substances such as PGI2.

[22] = within 24 hours of intramuscular oxymatrine 100 mg/kg

O=C(O)[C@H](O)Cc1ccc(O)c(O)c1 [Danshensu, D(+) β-(3,4-dihydroxyphenyl) lactic acid]
pharmacokinetic model [1]: single ventricular model
half-life ([1]; rabbit, in vivo, iv, 5 rabbits, read-out: biological half-life t1/2): 16.6 min
area suffered from myocardial infarction [2]: the area suffered from myocardial infarction is reduced
heart function [2]: the heart function is improved
Danshensu content, adrenal tissue average [3]: 14.15 µg/g
Danshensu content, brain tissue average [3]: 5.45 µg/g
Danshensu content, heart tissue average [3]: 12.30 µg/g
Danshensu content, liver tissue average [3]: 17.69 µg/g
Danshensu content, lung tissue average [3]: 19.73 µg/g
Danshensu content, spleen tissue average [3]: 4.66 µg/g
P ([4]; Danshensu 1×10^6 g/ml in perfusion system, 31 strips, 40 experiments): -2.54±0.48 mmHg
dilatation of coronary artery smooth muscle ([4]; isolated pig coronary artery): dilate the smooth muscle of coronary artery; also recorded: obvious dilatation effect
fibrinolysis (isolated heart): relatively weaker function in fibrinolysis
blood flow of coronary artery (isolated heart; isolated heart): increasing the blood flow of coronary artery
toleration time in anoxic state [5]: prolong the toleration time in anoxic state
electrocardiac abnormality of pituitary myocardial ischemia [6]: restore the electrocardiac abnormality

O=C1CCC[C@@H]2[C@H]3CCC[N+]4([O-])CCC[C@@H](CN12)[C@@H]34 (stereo partly shown) [Oxymatrine]
distribution and elimination [7]: distribution is wide and the elimination fast
transformation in the gastrointestinal tract ([8]; stomach perfusion): gradually transforms into matrine in the gastrointestinal tract
excretion of oxymatrine [8, 22]: 5.1%
matrine found in the emiction of urine [8, 22]: 20.6%
LD50 ([9]; intramuscular injection): 256.74 ± 573.6 mg/kg
LD50 ([9]; intravenous injection): 144.2 ± 22.8 mg/kg
solubility (solubility): soluble in water, chloroform and ethanol, but nearly insoluble in ether, methyl ether and petroleum ether

Puerarin
pharmacokinetic model [10]: 3-ventricle open model
pharmacokinetic model [11]: 2-ventricle open model
occurrence rate of polychromatic erythrocytes micronucleus versus negative contrast [12]: no obvious difference
deformation of appearance, organ or bone of fetal mice [13]: not found
survival fetal number, absorption fetal number, weight, length, tail length versus control [13]: no obvious difference
adrenal gland's activation of dissolved adenylate cyclase (adenylate cyclase): completely inhibit
competition with the labeled ligand (β-receptor; conjugated competition): able to compete with the labeled ligand
maximum combination capacity of the β-receptor (β-receptor; rats's myocardial membrane): clearly reduce the maximum combination capacity
blood 6-K-PGF1a and High Density Lipid (HDL) level [14]: heighten
ratio of TXB2/6-K-PGF1a [14]: reduces the ratio
secreted from the bile ([15]; intravenous injection): 3.65%
secreted from the stool ([15]; intravenous injection): 7.39%
secreted from the urine ([15]; intravenous injection): 37.62%
tissue content ([15]; intravenous injection): the content in kidney is highest, blood plasma takes second place and the brain has lesser
oral absorption ([15]; oral): absorbed faster but not complete
excreted as stool ([15]; oral, 24 hours): 35.7%
excreted as urine ([15]; oral, 24 hours): 1.85%
medication volume retrieved from gastrointestinal substance and stool ([15]; oral, after 24 hours): 37.3 % of the volume administrated
lowering of LVSD ([16]; 20 mg/kg i.v., 5 minutes after blockage): 10.14%
myocardial infarction scope (N-BT) ([16]; 20 mg/kg i.v., 6 hours later): reduces significantly
aortic pressure ([16]; intravenous injection): lower the aortic pressure
release of myocardial CPK ([16]; ischemia and reperfusion): lowers the release of myocardial CPK
myocardial index ([17]; 30 minutes and 2 hours after (p<0.01, P=0.05)): clearly reduces
genesis rate of infarction expansion ([17]; human, in vivo): obviously lowers
arrhythmic time [18]: shorten the arrhythmic time
mutation rate (MR) [19]: < 2
secreted from the urine ([20]; 36 hours): 0.78%
secreted from the stool ([20]; 72 hours): 73.3%
carboxylic proline, external fluid of endothelial cells [21]: 2.43 ± 0.21 µg/mL
carboxylic proline, internal fluid of endothelial cells [21]: 2.70 ± 0.06 µg/mL
osamine polysaccharide, first value (internal fluid) [21]: 0.95 ± 0.12 µg/mL
osamine polysaccharide, second value [21]: 0.68 ± 0.15 µg/mL
